Source: US20250171438A1 (Agios Pharmaceuticals, Inc., priority 2022, published 2025)
Structures can show the parent of a compound that is named as a salt.

These compounds were tested against T1, human PAH with the R408W mutation (Homo sapiens, UniProt P00439, R408W) (assay: Cell Based Phenylalanine Flux Assay). Details: A375 cells expressing human R408W PAH; 24 hrs compound incubation; 13C-Tyrosine by LC-MS; average where tested multiple times; read-out: AC50.
T1 construct: expressed in transfected cells
T1 sequence (P00439 1-452 R408W): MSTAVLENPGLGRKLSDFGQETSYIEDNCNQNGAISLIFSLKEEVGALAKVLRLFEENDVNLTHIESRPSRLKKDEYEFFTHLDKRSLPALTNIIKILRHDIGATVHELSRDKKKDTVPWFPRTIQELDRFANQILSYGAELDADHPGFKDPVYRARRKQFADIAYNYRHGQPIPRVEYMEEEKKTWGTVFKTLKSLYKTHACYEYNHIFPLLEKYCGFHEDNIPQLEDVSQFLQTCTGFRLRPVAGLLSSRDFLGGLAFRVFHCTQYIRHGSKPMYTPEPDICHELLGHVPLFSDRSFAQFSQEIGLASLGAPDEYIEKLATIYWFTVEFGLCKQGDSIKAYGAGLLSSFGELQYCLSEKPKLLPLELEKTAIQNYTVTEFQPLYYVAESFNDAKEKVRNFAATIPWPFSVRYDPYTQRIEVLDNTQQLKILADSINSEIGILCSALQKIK

AC50 | SMILES
> 5 µM | O=C(c1nccs1)N1CCc2[nH]cnc2[C@@H]1c1nc2ccccc2[nH]1 [Example 902, (R)-(4-(1H-benzo[d]imidazol-2-yl)-6,7-dihydro-1H-imidazo[4,5-c]pyridin-5(4H)-yl)(thiazol-2-yl)methanone]
0.5 to 1 µM | O=C(c1nccs1)N1CCc2[nH]cnc2[C@H]1c1nc2ccccc2[nH]1 [Example 903, (S)-(4-(1H-benzo[d]imidazol-2-yl)-6,7-dihydro-1H-imidazo[4,5-c]pyridin-5(4H)-yl)(thiazol-2-yl)methanone]

Second part, the compound before the results:

SMILES | AC50
O=C(CCc1nccs1)N1CCc2[nH]cnc2[C@H]1c1nc2ccccc2[nH]1 [Example 900, (S)-1-(4-(1H-benzo[d]imidazol-2-yl)-6,7-dihydro-1H-imidazo[4,5-c]pyridin-5(4H)-yl)-3-(thiazol-2-yl)propan-1-one] | 0.5 to 1 µM
O=C(CCc1nccs1)N1CCc2[nH]cnc2[C@@H]1c1nc2ccccc2[nH]1 [Example 901, (R)-1-(4-(1H-benzo[d]imidazol-2-yl)-6,7-dihydro-1H-imidazo[4,5-c]pyridin-5(4H)-yl)-3-(thiazol-2-yl)propan-1-one] | > 5 µM
O=C(Cc1nc2ccccc2s1)N1CCc2[nH]cnc2[C@H]1c1nc2ccccc2[nH]1 [Example 905] | 1 to 5 µM
CC(C)(C)CCC(=O)N1CCc2[nH]cnc2[C@@H]1c1nc2ccccc2[nH]1 [Example 906, (R)-1-(4-(1H-benzo[d]imidazol-2-yl)-6,7-dihydro-1H-imidazo[4,5-c]pyridin-5(4H)-yl)-4,4-dimethylpentan-1-one] | 1 to 5 µM
CC(C)(C)CCC(=O)N1CCc2[nH]cnc2[C@H]1c1nc2ccccc2[nH]1 [Example 907, (S)-1-(4-(1H-benzo[d]imidazol-2-yl)-6,7-dihydro-1H-imidazo[4,5-c]pyridin-5(4H)-yl)-4,4-dimethylpentan-1-one] | < 0.5 µM

Same assay, conditions: A375 cells expressing human R408W PAH; 24 hrs with compound; 13C-Tyrosine by LC-MS; average where tested multiple times; read-out: AC50

AC50 | SMILES
1 to 5 µM | O=C(c1ccsn1)N1CCc2[nH]cnc2[C@H]1c1nc2ccccc2[nH]1 [(S)-(4-(1H-benzo[d]imidazol-2-yl)-1,4,6,7-tetrahydro-5H-imidazo[4,5-c]pyridin-5-yl)(isothiazol-3-yl)methanone]
1 to 5 µM | O=C(c1cnsc1)N1CCc2[nH]cnc2[C@H]1c1nc2ccccc2[nH]1 [(S)-(4-(1H-benzo[d]imidazol-2-yl)-1,4,6,7-tetrahydro-5H-imidazo[4,5-c]pyridin-5-yl)(isothiazol-4-yl)methanone]
1 to 5 µM | O=C(c1ccns1)N1CCc2[nH]cnc2[C@H]1c1nc2ccccc2[nH]1 [(S)-(4-(1H-benzo[d]imidazol-2-yl)-1,4,6,7-tetrahydro-5H-imidazo[4,5-c]pyridin-5-yl)(isothiazol-5-yl)methanone]
1 to 5 µM | O=C(c1ccon1)N1CCc2[nH]cnc2[C@H]1c1nc2ccccc2[nH]1 [(S)-(4-(1H-benzo[d]imidazol-2-yl)-1,4,6,7-tetrahydro-5H-imidazo[4,5-c]pyridin-5-yl)(isoxazol-3-yl)methanone]
1 to 5 µM | O=C(c1ncco1)N1CCc2[nH]cnc2[C@H]1c1nc2ccccc2[nH]1 [(S)-(4-(1H-benzo[d]imidazol-2-yl)-1,4,6,7-tetrahydro-5H-imidazo[4,5-c]pyridin-5-yl)(oxazol-2-yl)methanone]
1 to 5 µM | O=C(c1cnco1)N1CCc2[nH]cnc2[C@H]1c1nc2ccccc2[nH]1 [(S)-(4-(1H-benzo[d]imidazol-2-yl)-1,4,6,7-tetrahydro-5H-imidazo[4,5-c]pyridin-5-yl)(oxazol-5-yl)methanone]
1 to 5 µM | O=C(c1ccccn1)N1CCc2[nH]cnc2[C@H]1c1nc2ccccc2[nH]1 [(S)-(4-(1H-benzo[d]imidazol-2-yl)-1,4,6,7-tetrahydro-5H-imidazo[4,5-c]pyridin-5-yl)(pyridin-2-yl)methanone]
1 to 5 µM | O=C(c1cscn1)N1CCc2[nH]cnc2[C@H]1c1nc2ccccc2[nH]1 [(S)-(4-(1H-benzo[d]imidazol-2-yl)-1,4,6,7-tetrahydro-5H-imidazo[4,5-c]pyridin-5-yl)(thiazol-4-yl)methanone]
> 5 µM | Cn1cc(-c2ncc(C(=O)N3CCc4[nH]cnc4[C@H]3c3nc4ccccc4[nH]3)o2)cn1 [(S)-(4-(1H-benzo[d]imidazol-2-yl)-6,7-dihydro-1H-imidazo[4,5-c]pyridin-5(4H)-yl)(2-(1-methyl-1H-pyrazol-4-yl)oxazol-5-yl)methanone hydrochloride]
> 5 µM | CC(C)(O)c1ncc(C(=O)N2CCc3[nH]cnc3[C@H]2c2nc3ccccc3[nH]2)o1 [(S)-(4-(1H-benzo[d]imidazol-2-yl)-6,7-dihydro-1H-imidazo[4,5-c]pyridin-5(4H)-yl)(2-(2-hydroxypropan-2-yl)oxazol-5-yl)methanone]
1 to 5 µM | O=C(c1cnc(-c2ccccn2)o1)N1CCc2[nH]cnc2[C@H]1c1nc2ccccc2[nH]1 [(S)-(4-(1H-benzo[d]imidazol-2-yl)-6,7-dihydro-1H-imidazo[4,5-c]pyridin-5(4H)-yl)(2-(pyridin-2-yl)oxazol-5-yl)methanone]
1 to 5 µM | O=C(C1CCC1)N1CCc2[nH]cnc2[C@H]1c1nc2ccccc2[nH]1 [(S)-(4-(1H-benzo[d]imidazol-2-yl)-6,7-dihydro-1H-imidazo[4,5-c]pyridin-5(4H)-yl)(cyclobutyl)methanone]
1 to 5 µM | O=C(c1ccno1)N1CCc2[nH]cnc2[C@H]1c1nc2ccccc2[nH]1 [(S)-(4-(1H-benzo[d]imidazol-2-yl)-6,7-dihydro-1H-imidazo[4,5-c]pyridin-5(4H)-yl)(isoxazol-5-yl)methanone]
1 to 5 µM | O=C(c1cocn1)N1CCc2[nH]cnc2[C@H]1c1nc2ccccc2[nH]1 [(S)-(4-(1H-benzo[d]imidazol-2-yl)-6,7-dihydro-1H-imidazo[4,5-c]pyridin-5(4H)-yl)(oxazol-4-yl)methanone]

Second part, the compound before the results:

SMILES | AC50
O=C(c1cc2cccnn2c1)N1CCc2[nH]cnc2[C@H]1c1nc2ccccc2[nH]1 [(S)-(4-(1H-benzo[d]imidazol-2-yl)-1,4,6,7-tetrahydro-5H-imidazo[4,5-c]pyridin-5-yl)(pyrrolo[1,2-b]pyridazin-6-yl)methanone] | > 5 µM
Cn1cc(-c2ncc(C(=O)N3CCc4[nH]cnc4[C@H]3c3nc4ccccc4[nH]3)s2)cn1 [(S)-(4-(1H-benzo[d]imidazol-2-yl)-6,7-dihydro-1H-imidazo[4,5-c]pyridin-5(4H)-yl)(2-(1-methyl-1H-pyrazol-4-yl)thiazol-5-yl)methanone] | > 5 µM
Cc1nc(C(C)(C)O)oc1C(=O)N1CCc2[nH]cnc2[C@H]1c1nc2ccccc2[nH]1 [(S)-(4-(1H-benzo[d]imidazol-2-yl)-6,7-dihydro-1H-imidazo[4,5-c]pyridin-5(4H)-yl)(2-(2-hydroxypropan-2-yl)-4-methyloxazol-5-yl)methanone] | > 5 µM
CC(C)(O)c1nc(C2CC2)c(C(=O)N2CCc3[nH]cnc3[C@H]2c2nc3ccccc3[nH]2)o1 [(S)-(4-(1H-benzo[d]imidazol-2-yl)-6,7-dihydro-1H-imidazo[4,5-c]pyridin-5(4H)-yl)(4-cyclopropyl-2-(2-hydroxypropan-2-yl)oxazol-5-yl)methanone] | 1 to 5 µM
O=C(c1cnn2ccc(Cl)cc12)N1CCc2[nH]cnc2[C@H]1c1nc2ccccc2[nH]1 [(S)-(4-(1H-benzo[d]imidazol-2-yl)-6,7-dihydro-1H-imidazo[4,5-c]pyridin-5(4H)-yl)(5-chloropyrazolo[1,5-a]pyridin-3-yl)methanone] | 1 to 5 µM
O=C(c1nc2cc(F)ccc2s1)N1CCc2[nH]cnc2[C@H]1c1nc2ccccc2[nH]1 [(S)-(4-(1H-benzo[d]imidazol-2-yl)-6,7-dihydro-1H-imidazo[4,5-c]pyridin-5(4H)-yl)(5-fluorobenzo[d]thiazol-2-yl)methanone] | 1 to 5 µM
COc1ccn2ncc(C(=O)N3CCc4[nH]cnc4[C@H]3c3nc4ccccc4[nH]3)c2c1 [(S)-(4-(1H-benzo[d]imidazol-2-yl)-6,7-dihydro-1H-imidazo[4,5-c]pyridin-5(4H)-yl)(5-methoxypyrazolo[1,5-a]pyridin-3-yl)methanone] | 1 to 5 µM
Cc1ccn2ncc(C(=O)N3CCc4[nH]cnc4[C@H]3c3nc4ccccc4[nH]3)c2c1 [(S)-(4-(1H-benzo[d]imidazol-2-yl)-6,7-dihydro-1H-imidazo[4,5-c]pyridin-5(4H)-yl)(5-methylpyrazolo[1,5-a]pyridin-3-yl)methanone] | 1 to 5 µM
O=C(c1nc2ccc(F)cc2s1)N1CCc2[nH]cnc2[C@H]1c1nc2ccccc2[nH]1 [(S)-(4-(1H-benzo[d]imidazol-2-yl)-6,7-dihydro-1H-imidazo[4,5-c]pyridin-5(4H)-yl)(6-fluorobenzo[d]thiazol-2-yl)methanone] | 1 to 5 µM
COc1ccc2c(C(=O)N3CCc4[nH]cnc4[C@H]3c3nc4ccccc4[nH]3)cnn2c1 [(S)-(4-(1H-benzo[d]imidazol-2-yl)-6,7-dihydro-1H-imidazo[4,5-c]pyridin-5(4H)-yl)(6-methoxypyrazolo[1,5-a]pyridin-3-yl)methanone] | 1 to 5 µM
Cc1ccc2c(C(=O)N3CCc4[nH]cnc4[C@H]3c3nc4ccccc4[nH]3)cnn2c1 [(S)-(4-(1H-benzo[d]imidazol-2-yl)-6,7-dihydro-1H-imidazo[4,5-c]pyridin-5(4H)-yl)(6-methylpyrazolo[1,5-a]pyridin-3-yl)methanone] | 1 to 5 µM
O=C(c1cc2ccccn2n1)N1CCc2[nH]cnc2[C@H]1c1nc2ccccc2[nH]1 [(S)-(4-(1H-benzo[d]imidazol-2-yl)-6,7-dihydro-1H-imidazo[4,5-c]pyridin-5(4H)-yl)(pyrazolo[1,5-a]pyridin-2-yl)methanone] | > 5 µM
